# Measured values: patent publication US9238796B2, “Cell growth-promoting peptide and use thereof” (TOAGOSEI CO., LTD., priority 2010, dated 2016)
# No end group written: not given here.
# Key:
# [1] = tested on: Rat bone marrow-derived stem cells (mesenchymal stem cells); assay: Evaluation of cell growth-promoting activity, WST-8 colorimetric method (Example 2); assay type: cell-based; conditions: WST-8 absorbance at 450 nm, peptide approximately 2 μM, bFGF 10 ng/mL; for OD450 at the start of cultivation: day 0; for OD450 after 2 days: day 2; for OD450 after 4 days: day 4
# Procedure: Experimental sections were set up that used the cell growth-promoting peptides obtained in Example 1 (samples 1 to 21) as a cell growth promoter and that used a commercially available bFGF as a cell growth promoter as a comparative example. For the control, a peptide-free section (the bFGF was also not added) was set up.
# (§1) The details of the evaluation testing are provided below. Each synthesized sample peptide was dissolved in PBS (phosphate-buffered physiological saline) to prepare a stock solution with a peptide concentration of 1 mM.
# (§2) Rat bone marrow-derived stem cells (mesenchymal stem cells) were used as the test cells. Specifically, the test stem cells were cultured by passage on Dulbecco's MEM medium (DMEM medium: Gibco product) containing 10% fetal bovine serum (FBS: Gibco product), 2 mM of L-glutamine, 50 unit/mL of penicillin, and 50 μg/mL of streptomycin. From the second passage to the fourth passage (passages 2 to 4) were used in this evaluation testing.
# (§3) Thus, the test stem cells were preliminarily recovered by treatment with a 0.05% trypsin-0.53 mM EDTA solution; a test stem cell solution, prepared with the DMEM medium containing 10 ng/mL of bFGF to provide 1×10^4 cells/mL, was seeded to each well of a 96-well plate to provide a cell count of 1×10^3 per well; and pre-cultivation was carried out overnight. The amount of medium was brought to 100 μL per well for this.
# The medium in each well was then exchanged for fresh medium to which a stock solution of a peptide selected from sample 1 to 21 had been added, so as to give a concentration of the peptide in each well of approximately 2 μM. For comparison, in some wells the medium in the well was exchanged for fresh medium to which a commercially available bFGF (product of PeproTech) had been added to give a concentration of 10 ng/mL (the bFGF experimental section in Table 3).
# (§4) After the addition of the sample peptide or bFGF as indicated above, the 96-well plate was placed in a CO2 incubator and cultivation at quiescence was carried out at 37° C. under 5% CO2. Medium exchange was performed every other day. The exchange medium was the same as that used at the start of cultivation (i.e., the same sample peptide or bFGF was also added to the exchange medium as in the sample peptide addition section or bFGF addition section).
# During this cultivation test, a “water-soluble tetrazolium salt (WST-8)” was added as a chromogenic reagent to some wells at the start of cultivation (day 0), at two days after the start of cultivation (day 2), and at four days after the start of cultivation (day 4). After incubation for 2 hours after the addition, the cell culture fluid to which the chromogenic reagent had been added was recovered. The extent of cell growth was evaluated by a colorimetric method in which, based on reduction of the tetrazolium salt, the absorbance (OD450) at a wavelength of 450 nm was measured.
# [2] = tested on: Rat bone marrow-derived stem cells (mesenchymal stem cells); assay: Evaluation of cell growth-promoting activity, WST-8 colorimetric method (Example 5); assay type: cell-based; conditions: WST-8 absorbance at 450 nm, peptide approximately 2 μM, bFGF 10 ng/mL; for OD450 at the start of cultivation: day 0; for OD450 after 4 days: day 4
# Procedure: Experimental sections were set up that used the cell growth-promoting peptides obtained in Example 4 (samples 22 to 42) as a cell growth promoter and that used a commercially available bFGF as a cell growth promoter as a comparative example. For the control, a peptide-free section (the bFGF was also not added) was set up.
# as §1, §2, §3
# The medium in each well was then exchanged for fresh medium to which a stock solution of a peptide selected from sample 22 to 42 had been added, so as to give a concentration of the peptide in each well of approximately 2 μM. For comparison, in some wells the medium in the well was exchanged for fresh medium to which a commercially available bFGF (product of PeproTech) had been added to give a concentration of 10 ng/mL (the bFGF experimental section in Table 6).
# as §4
# During this cultivation test, a “water-soluble tetrazolium salt (WST-8)” was added as a chromogenic reagent to some wells at the start of cultivation (day 0) and at four days after the start of cultivation (day 4). After incubation for 2 hours after the addition, the cell culture fluid to which the chromogenic reagent had been added was recovered. The extent of cell growth was evaluated by a colorimetric method in which, based on reduction of the tetrazolium salt, the absorbance (OD450) at a wavelength of 450 nm was measured.
Sequence,OD450 at the start of cultivation [1],OD450 after 2 days [1],OD450 after 4 days [1],OD450 at the start of cultivation [2],OD450 after 4 days [2]
MLPSLALGKKRTLRKNDRKKR (MLPSLALGKKRTLRKNDRKKR-NH2) [compound 21],0.058,0.155,0.332,,
MLPGLALLLLAAWTGKKRTLRKNDRKKR (MLPGLALLLLAAWTGKKRTLRKNDRKKR-NH2) [compound 35],,,,0.051,0.299
MLPSLALLLLAAWTVGKKRTLRKNDRKKR (MLPSLALLLLAAWTVGKKRTLRKNDRKKR-NH2) [compound 13],0.058,0.123,0.232,,
GLALLLLAAWTARAGKKRTLRKNDRKKR (GLALLLLAAWTARAGKKRTLRKNDRKKR-NH2) [compound 24],,,,0.051,0.327
AAWTVRAGKKRTLRKNDRKKR (AAWTVRAGKKRTLRKNDRKKR-NH2) [compound 10],0.058,0.149,0.389,,
PGLALLLLAAWTARAGKKRTLRKNDRKKR (PGLALLLLAAWTARAGKKRTLRKNDRKKR-NH2) [compound 23],,,,0.051,0.391
SLALLLLAAWTVRAGKKRTLRKNDRKKR (SLALLLLAAWTVRAGKKRTLRKNDRKKR-NH2) [sample 3],0.058,0.139,0.293,,
AWTVRAGKKRTLRKNDRKKR (AWTVRAGKKRTLRKNDRKKR-NH2) [compound 11],0.058,0.169,0.403,,
MLPSLALLLLAAWTGKKRTLRKNDRKKR (MLPSLALLLLAAWTGKKRTLRKNDRKKR-NH2) [compound 14],0.058,0.132,0.293,,
MLPGLALLLGKKRTLRKNDRKKR (MLPGLALLLGKKRTLRKNDRKKR-NH2) [compound 40],,,,0.051,0.487
PSLALLLLAAWTVRAGKKRTLRKNDRKKR (PSLALLLLAAWTVRAGKKRTLRKNDRKKR-NH2) [sample 2],0.058,0.136,0.297,,
LLAAWTARAGKKRTLRKNDRKKR (LLAAWTARAGKKRTLRKNDRKKR-NH2) [compound 29],,,,0.051,0.434
MLPGLALLLLAAWGKKRTLRKNDRKKR (MLPGLALLLLAAWGKKRTLRKNDRKKR-NH2) [compound 36],,,,0.051,0.288
MLPGLALLLLAAGKKRTLRKNDRKKR (MLPGLALLLLAAGKKRTLRKNDRKKR-NH2) [sample 37],,,,0.051,0.571
MLPSLALLLLAAWGKKRTLRKNDRKKR (MLPSLALLLLAAWGKKRTLRKNDRKKR-NH2) [compound 15],0.058,0.133,0.276,,
LLLLAAWTARAGKKRTLRKNDRKKR (LLLLAAWTARAGKKRTLRKNDRKKR-NH2) [compound 27],,,,0.051,0.511

Sequence,OD450 at the start of cultivation [1],OD450 after 2 days [1],OD450 after 4 days [1],OD450 at the start of cultivation [2],OD450 after 4 days [2]
MLPSLALLLLAGKKRTLRKNDRKKR (MLPSLALLLLAGKKRTLRKNDRKKR-NH2) [compound 17],0.058,0.176,0.468,,
WTARAGKKRTLRKNDRKKR (WTARAGKKRTLRKNDRKKR-NH2) [compound 33],,,,0.051,0.407
MLPSLALLLLAAGKKRTLRKNDRKKR (MLPSLALLLLAAGKKRTLRKNDRKKR-NH2) [compound 16],0.058,0.172,0.525,,
MLPGLALLGKKRTLRKNDRKKR (MLPGLALLGKKRTLRKNDRKKR-NH2) [compound 41],,,,0.051,0.311
WTVRAGKKRTLRKNDRKKR (WTVRAGKKRTLRKNDRKKR-NH2) [compound 12],0.058,0.181,0.388,,
ALLLLAAWTVRAGKKRTLRKNDRKKR (ALLLLAAWTVRAGKKRTLRKNDRKKR-NH2) [compound 5],0.058,0.189,0.483,,
LLLLAAWTVRAGKKRTLRKNDRKKR (LLLLAAWTVRAGKKRTLRKNDRKKR-NH2) [compound 6],0.058,0.186,0.483,,
LALLLLAAWTVRAGKKRTLRKNDRKKR (LALLLLAAWTVRAGKKRTLRKNDRKKR-NH2) [compound 4],0.058,0.136,0.304,,
MLPSLALLGKKRTLRKNDRKKR (MLPSLALLGKKRTLRKNDRKKR-NH2) [compound 20],0.058,0.158,0.320,,
LAAWTVRAGKKRTLRKNDRKKR (LAAWTVRAGKKRTLRKNDRKKR-NH2) [compound 9],0.058,0.179,0.398,,
LLLAAWTVRAGKKRTLRKNDRKKR (LLLAAWTVRAGKKRTLRKNDRKKR-NH2) [compound 7],0.058,0.176,0.499,,
MLPSLALLLLAAWTVRAGKKRTLRKNDRKKR (MLPSLALLLLAAWTVRAGKKRTLRKNDRKKR-NH2) [sample 1],0.058,0.132,0.243,,
MLPSLALLLLGKKRTLRKNDRKKR (MLPSLALLLLGKKRTLRKNDRKKR-NH2) [compound 18],0.058,0.184,0.505,,
MLPSLALLLGKKRTLRKNDRKKR (MLPSLALLLGKKRTLRKNDRKKR-NH2) [compound 19],0.058,0.163,0.478,,
LLAAWTVRAGKKRTLRKNDRKKR (LLAAWTVRAGKKRTLRKNDRKKR-NH2) [compound 8],0.058,0.168,0.418,,
